This is an account of results in patent publication US20030130200A1, “Small peptides and methods for treatment of asthma and inflammation” (Hisatek, LLC, priority 1997, published 2003).

Where no end group is shown, it is not given here. The star is where a group is joined. For = O=C*

The test system of experiment [1] is type II collagen arthritis. Kind of experiment: Induced type II collagen arthritis mouse model. In kind it is in vivo, mouse (DBA/1 male). Particulars: HK-X TC or footpad, 0.4 or 4 mg/kg for 20 days; x-ray and histology. The source says: A mouse model is used to evaluate the effect of the compounds of the present invention on the histological, radiographic and clinical appearance of induced type II collagen arthritis. Mice: DBA/1(2) male mice weighing 25 gms (Jackson Laboratories, Bar Harbor, Me. or B&K Universal, Kent Wash.) are used for this work. This strain of mouse is susceptible to CIA by the injection of heterologous type II collagen. Bovine Collagen (BC), Complete Freund's Adjuvant (CFA) and Incomplete Freund's Adjuvant (ICFA) can be obtained from Sigma Chemical. Antigen for immunization is processed in 0.1 M acetic acid and formulated with CFA or ICFA. […] The degree of cellularity and areas of inflammation are quantified by using digitization of histological photomicrographs and applying standard area and point counting techniques as described above. […] The average area of soft tissue (pannus) of the joint is determined by analysis of computer digitized radiographs, along with changes in density of the adjacent hard tissues by comparison with internal standards included with each radiograph. […] The significance of the differences in density and area for control and experimental mice is assessed using paired T-tests at each time point. […] Swelling of hind paws is also quantitated by measuring the thickness of the ankle from the medial to the lateral malledus with a constant tension caliper. […]

For a further experiment, the system named is mast cells. Kind of experiment: Rat skin model for inhibition of mast cell degranulation induced by Compound 48/80 (area of capillary permeability/bluing). Type of experiment: in vivo, rat (male Sprague-Dawley). The source says:
The Rat Skin Model for Determination of Inhibition of Mast Cell Degranulation
Allergy induced asthma results from exposure of substances (allergens) to which an organism has become hypersensitized. Exposure to allergen results in degranulation of mast cells in the lung, releasing leukotrienes and histamines. […] Respiratory symptoms resulting from such an exposure range from mild (itching and sneezing) to potentially fatal (asthma), including in extreme chronic cases death by anaphylaxis.
In this model, the blood plasma of the experimental rat is labeled with the dye trypan blue. This soluble dye is carried in the bloodstream as a passive marker of plasma itself, and is excluded from live cells. Intact blood vessels including the capillary system, retain this dye under normal circumstances. A compound, which induces degranulation of mast cells (resulting in leukotriene and histamine release), is injected into the skin to simulate allergen-induced degranulation. In these experiments, Compound 48/80 was used for this purpose. In the events following leukotriene and histamine release, capillary permeability is increased, and plasma, dyed blue, leaks from capillaries and dyes the skin surrounding the injection site blue. The area of bluing is a measure of the amount of Compound 48/80 injected.
A compound can be tested for “anti-leukotriene” and/or “anti-histamine” activity by mixing it with Compound 48/80 prior to injection.
The rat skin model was undertaken and validated. Various peptides were tested at a predetermined dose for anti-leukotriene and/or anti-histamine activity. The dose selected allowed a general comparison to f-Met-Leu-Phe, which was standard compound for comparison.
A “dose response” titration was performed for some compounds and compared with the standard compound. Observing serial decreases in the size areas of capillary permeability using serially smaller doses of the putative inhibitory compound validates the inhibition of leukotriene and/or histamine release observed in the initial predetermined dose test.
Reagents were obtained from Sigma or Aldrich, with the exception of ketamine, a veterinary anaesthetic that was obtained from various veterinary suppliers. The rats used were male Sprague-Dawley breed, 220-240 g at time of purchase from B&K International.
For the rat skin reaction, rats were anaesthetized with 0.25 ml 10 mg/ml ketamine. 1.0 ml trypan blue in saline (sterile filtered) was administered in a tail vein, and the back of the rat was shaved. Four intradermal injection sites per rat were used for test and control injections.
Compound 48/80 was prepared as a 1.5 mg/ml stock solution in saline. […] Serial dilutions in saline to working levels were prepared just prior to injection of each rat.
Peptides were prepared as a 23 mM stock solution in DMSO, and stored at −20° C. between experiments. At the time of use, the frozen stock solutions were thawed, and appropriate aliquots added to dilutions of Compound 48/80, along with appropriate amounts of DMSO, to result in the ratio of 5 μl DMSO to 0.1 ml aqueous Compound 48/80.
For injections, 0.1 ml Compound […], +/− test compounds were injected intradermally into anaesthetized, dyed, and shaved rats. Following a 15 minute incubation, the rats were sacrificed by cervical dislocation and the back skin was evulsed and placed on a light box. An image of the backlit skin was digitized using a CCD video capture camera and compatible hardware/software. The digitized image was analyzed using a scientific graphics analysis software package, and the areas of capillary permeability (bluing) were integrated and digital values were obtained for further analysis.
A dose response curve was generated using Compound 48/80 at various doses from ca. 0.01 μg through ca 15 μg. […] A dose of 0.15 μg of Compound 48/80 was selected for conducting further tests.
A dose response curve was prepared for the standard compound, f-Met-Leu-Phe, using the selected dose of 0.15 μg Compound 48/80. […]

As for “f-Met-Leu-Phe-Phe (For-MLFF) [Example 9]”, the Degree of arthritis entry in experiment [1] is given as “reduce the degree of arthritis”. In addition, in the experiment on mast cells (doses of 0 to about 230 nM peptide, 0.15 μg Compound 48/80 (FIG. 2, FIG. 3)), the “Inhibition of degranulation induced by Compound 48/80, dose response curve” value is “Surprisingly remarkable inhibition of degranulation induced by Compound 48/80 was clearly shown”. Also, the “% Degranulation” value in the experiment with mast cells (percent mast cell degranulation produced by 48/80, 100 nanomoles peptide, 0.15 μg Compound 48/80) was 1-3%.
